Assay results: PMC6409085, “Three odorant-binding proteins are involved in the behavioral response of Sogatella furcifera to rice plant volatiles” (PeerJ, 2019)
Like-named read-outs stand apart in the source and are kept apart here.

Assays:
[1] = test system: dsRNA treated S. furcifera adults; test: Y-tube olfactometer behavioral trials after RNAi; type: in vivo, Sogatella furcifera; settings: for number of insects choosing hexane arm / number of insects choosing volatile arm / number of insects failed (no choice): odorant vs hexane
Method: To test the effect of the rice odorants on the behavior of S. furcifera adults, a glass Y-tube olfactometer (inner diameter 2.0 cm, stem 13 cm, arms 10 cm, angle of arms 60°) according to the previously described ([Wang et al., 2014b]) was employed. An airtight cubic box (70 by 45 by 30 cm) was used to position Y-tube, and the Y-tube was lighted by a 30-W filament lamp 25 cm above it. Air that filtered through activated charcoal and humidified with doubly distilled water was pumped in both arms at a flow rate of 300 mL/min. Two filter paper strips (10 by 1 cm) containing 100 µL odorant source (50 µL/L) and 100 µL control hexane were placed in two holding chambers in the front of the olfactometer, respectively. A S. furcifera adult (2 days after emergence, starved for 0.5 h) was randomly chosen and placed in the stem of the Y-tube. Each insect was given 10 min to choose between the two arms of the Y-tube, the choice was noted if the planthopper reached one-half of the arms’ lengths and stayed in the arm for more than 1 min. Besides, S. furcifera was considered as having no orientation preference. Forty-five individuals were used for each compound, each insect used only once. And the dual-choice experiment was done in an environmentally controlled room (25 ± 1 °C and 50% RH). A Chi-squared test was used to analyze the behavioral assay data by using SPSS19.0 (SPSS Inc., Chicago, IL, USA) software.
S. furcifera adults (one-day-old, CO2 anesthetized) were injected with dsRNA (50 nL/adult, 2,000 ng/µL) through the membrane between the meso- and meta-thoracic legs using a Nanoinjector (Drummond Scientific, Broomall, PA, USA). Five treatments including dsOBP2, dsOBP3, dsOBP11, dsEGFP and RNase-free water (Control) were set up. Each treatment consisted of 30 adults and the experiments were repeated three times. Ten individuals were collected from each replicate to determine the effects of RNAi by qPCR post 24 h of dsRNA injection (the timepoint with maximum RNAi efficiency after injection). Meanwhile, the behavioral responses of dsRNA treated adults for volatiles which binding well to OBP and attract or repel to S. furcifera were tested using a Y-tube olfactometer as described above.

[2] = test system: S. furcifera adults; set-up: method as in Wang et al., 2017; settings: previously reported, ref Wang et al., 2017, cited from earlier work

Compound | behavioral response (in words) ([1]; dsOBP11 injected adults) | number of insects choosing hexane arm ([1]; dsOBP11 injected adults) | number of insects choosing volatile arm ([1]; dsOBP11 injected adults) | number of insects failed (no choice) ([1]; dsOBP11 injected adults) | behavioral response of S. furcifera (in words) [2] | behavioral response of S. furcifera (in words) ([2]; listed as Plant alcohol) | behavioral response (in words) ([1]; dsOBP3 injected adults) | number of insects choosing hexane arm ([1]; dsOBP3 injected adults) | number of insects choosing volatile arm ([1]; dsOBP3 injected adults) | number of insects failed (no choice) ([1]; dsOBP3 injected adults) | behavioral response (in words) ([1]; SfurOBP2 silenced adults) | number of insects choosing hexane arm ([1]; dsOBP2 injected adults) | number of insects choosing volatile arm ([1]; dsOBP2 injected adults) | number of insects failed (no choice) ([1]; dsOBP2 injected adults)
C/C(=C\CO)CCC[C@H](C)CCC[C@H](C)CCCC(C)C [plant alcohol] | lost the activation that repel | 17 | 19 | 13 | significantly repellent effect | strongly repellent |  |  |  |  |  |  |  | 
C=C/C(C)=C/C/C=C(\C)CCC=C(C)C [α-farnesene] |  |  |  |  |  |  | no longer attracted | 11 | 12 | 15 |  |  |  | 
CC(=O)/C=C/C1=C(C)CCCC1(C)C [β-Ionone] |  | 8 | 17 | 16 |  |  |  | 9 | 16 | 15 | significantly reduced the number of adults that attracted | 14 | 13 | 15
